# Assay results from patent US5437980A, “Phenanthridium dye staining of nucleic acids in living cells” (Molecular Probes, Inc., priority 1993, dated 1995).
# “Also recorded” adds a separate entry of the source.
# Legend:
# [1] = tested on: DNA; test: Relative DNA binding affinity, YOYO-1 over 5-DAPP/LIVE
# [2] = tested on: living cells; test: Entry into / staining of living cells, general; type: cell-based; conditions: general summary; for entry into / staining of live cells: several types of cells
# [3] = tested on: epidermal tissue of the bulb, Alium spp.; test: Staining of plant cell tissue (Example 6); type: cell-based; conditions: 10 μM dye, 30 min, room temperature
# Procedure: A small section of tissue from the bulb is removed with a razor blade. 0.5 mL of a 10 μM solution of the 5-DAPP/LIVE dye in distilled water is dispensed into a small glass dish. The epidermal tissue is cut into sections and placed in the dye solution. The tissue is stained for 30 min at room temperature in the dark then the tissue preparation is mounted in the presence of the dye between a coverglass and the slide.
# [4] = tested on: Saccharomyces; test: Staining of yeast (Example 5); type: cell-based; conditions: 10 μM dye, 30 min, 37° C.
# Procedure: Yeast cells are washed by centrifugation and then resuspended in a solution of 2% glucose and 10 mM Na-HEPES, pH 7.4 to a cell density of between 5×10^5 and 2×10^6 cells/mL optical density at 410 nm (previously calibrated with YPD agar plate colony counts). Sufficient 10 mM stock solution of the 5-DAPP/LIVE dye in DMSO is added to effect a final concentration of 10 μM of the dye in the medium. The suspension is incubated for 30 min at 37° C. then 15 μL are placed between a coverglass and the microscope slide. The cellular fluorescence is observed using fluorescein (long-pass emission) or rhodamine filter sets.
# [5] = tested on: DNA; test: DNA affinity (Kp) from fluorescence enhancement versus DNA concentration, microtiter plate reader; type: binding; conditions: comparison in words, Table 1
# Procedure: ^1 Fluorescence spectra obtained using a standard ratio of 200 μM
# bp of DNA (bases of RNA) to 1 μM dye (standard solution) in a working
# buffer (10 mM phosphate, 10% (v/v) ethanol, 1 mM EDTA and 100 mM NaCl), p
# 7.4. Fluorescence was measured in a Corning 96 U well plate and Cytofluor
# sensitivity 4) as a function of DNA concentration from 0-100 μM at a
# constant dye concentration of 0.5 μM.
# ^2 Fluorescence spectra obtained using the same method as above excep
# the fluorescence was measured in a Cytofluor ™ 2300 (excitation filter
# E (485/620); excitation D (620/640), and a sensitivity 4) as a function o
# DNA concentration from 0-30 μM at a constant dye concentration of 0.1
# ^3 DNA affinity (Kp) determined by linear fitting of plots of
# reciprocal fluorescence enhancement versus reciprocal DNA concentration,
# as measured on a microtiter plate fluorescence reader (CytoFluor ™,
# [6] = tested on: mushroom spores; test: Staining of mushroom spores by fluorescence microscopy (Example 4); type: cell-based, agaric; conditions: 10-20 μM dye, 30 min, room temperature
# Procedure: Spores are rinsed from the gills on the underside of the cap of an agaric using a stream of distilled water. The spores are concentrated by centrifugation for 30 sec at 10,000 rpm in a microcentrifuge then a minimal volume of a 10-20 μM solution of the 5-DAPP/LIVE dye in distilled water is added. The suspension is incubated with the dye for 30 min at room temperature then a 15 μL aliquot of the suspension is mounted on between a coverglass and the slide for viewing in the presence of the dye. The cellular fluorescence is observed on a Zeiss Axioplan fluorescence microscope using fluorescein (long:pass emission) or rhodamine filter sets.
# [7] = tested on: peripheral blood lymphocytes; test: Staining of peripheral blood lymphocytes, fluorometer (Example 11); type: cell-based, goat; conditions: for distribution of dye into nucleus of lymphocytes: on the scale of seconds
# Procedure: Peripheral blood lymphocytes (PBL) are isolated from fresh heparinized goat blood and resuspended in buffer consisting of 135 mM NaCl, 5 mM KCl, 20 mM HEPES, 1 mM CaCl2, 1 mM MgCl2, pH 7.4 (HBSS+). The cells are resuspended to 10^6 mL (as determined by direct microscopic count using a standard hemocytometer) in a final volume of 3 mL in the above buffer in a quartz cuvette. 5-DAPP/LIVE dye stocks are prepared to final concentrations of 2 mM in DMSO. 3 μL of the octidium dye stock solution is injected into the cuvette to a final concentration of 2 μM. In a fluorometer, the sample is excited at 520 nm and fluorescence emission is monitored at 600 nm over the time required for the fluorescence signal to become stable. Hexidium, butidium and ethidium bromide are injected into separate samples of PBL to determine the relative rates of uptake for these stains. The volume of dye solution added to the cuvette is corrected by a factor relating the absorbance of the dye to the absorbance of a 2 mM octidium solution.
# [8] = tested on: free-living ciliate and flagellate protozoans; test: Staining of protozoa (Example 7); type: cell-based; conditions: 1 μL of 10 mM dye in 1 mL culture, 10 min, ambient temperature
# Procedure: 1 μL of 10 mM the 5-DAPP/LIVE dye stock is added to 1 mL of protozoan culture. The medium is incubated for 10 min at ambient temperature. 15 μL of this preparation is mounted with dye between a coverglass and the slide. Using this procedure, the nuclei of most cells of the free-living ciliate and flagellate protozoans are stained under these conditions.
# [9] = tested on: 3T3 mouse fibroblast cells; test: Staining of nuclei in adherent cultured mammalian cells (Example 9); type: cell-based; conditions: 2 μM dye; for staining distribution, chloroquine-treated cells: group 1, 300 μM chloroquine; for staining distribution, control cells: group 2, no chloroquine; for color of nucleus and cytoplasm: one half hour, long-pass fluorescein filter (red with rhodamine excitation)
# Procedure: 3T3 mouse fibroblast cells are grown on coverslips in calf serum-supplemented DMEM medium. The coverslips of cells are washed in HBSS+. 5-DAPP/LIVE dye solutions are prepared to a final concentration of 2 μM in DMEM without serum. One group of 3T3 cells is treated with 300 μM chloroquine (group 1). These cells and control cells (group 2) not treated with chloroquine are incubated at 37° C. for 30 min. The two groups of cells are transferred to DMEM plus 5-DAPP/LIVE. The cells are incubated in the dye-containing medium for 30 min at room temperature and are subsequently washed in HBSS+and viewed by epifluorescence microscopy using a long-pass fluorescein or a rhodamine filter set.
# [10] = tested on: Bacillus cereus; test: Relative rate and extent of dye uptake into living Bacillus cereus (Example 2, FIG. 1); type: cell-based; conditions: 2 μM dye, 23° C., 488 nm excitation, 600 nm emission
# Procedure: FIG. 1. Relative Uptake of Dyes into Living Cells. Uptake of ethidium, butidium, hexidium and octidium by Bacillus cereus as described in Example 2.
# Bacillus cereus is grown in nutrient broth to log phase, washed by centrifugation, and resuspended in water to a density of 5×10^6 cfu/mL (as determined in Example 1). One centimeter pathlength acrylic cuvettes containing 3 mL of cell suspension are placed in a fluorescence spectrophotometer equipped with a temperature regulated cuvette holder and magnetic stirrer. The suspensions are brought to 23° C. prior to dye addition. To a cuvette of 3 mL bacteria suspension is added 3 μL of 2 mM dye stock solutions in DMSO to give a final dye concentration of 2 μM to produce the maximum attainable fluorescence/cell at the 600 nm emission wavelength (determined as in Example 1). The peak fluorescence excitation and emission wavelengths are determined by scanning the spectrum of the dye in suspensions of Bacillus cereus incubated for 30 min with the dye. Fluorescence intensity of the suspensions is measured using 488 nm excitation and 600 nm emission wavelengths. Sampling of fluorescence is carried out at 5 or 10 Hz until the fluorescence signal appears to stabilize.
# [11] = tested on: nucleic acids; conditions: reduced ethidium, Bucana et al. (1986); cited from earlier work
# [12] = tested on: gram-positive bacteria; conditions: mild conditions; application Ser. No. 08/047,683; cited from earlier work
# [13] = tested on: trypanosome; conditions: Watkins, J. CHEM SOC. 3059 (1952); Watkins & Woolfe; cited from earlier work
# [14] = tested on: living cells; conditions: intact cell membrane; background; cited from earlier work
# [15] = tested on: gram-negative bacteria; conditions: mild conditions; application Ser. No. 08/047,683; cited from earlier work
# [16] = tested on: tissue culture cells; test: Entry into / staining pattern of tissue culture cells; type: cell-based
# Source text: In some tissue culture cells, the pattern of staining is different from that observed in plant cells or bacteria. In the former case, cells are usually loaded with a brief pulse of dye, followed by a chase of buffered saline solution. These cells show a pattern of staining first in numerous intracellular compartments; e.g. lysosomes. In addition to staining these organelles first, the dyes also undergo a spectral shift to shorter wavelengths when associated with this "early-labeled compartment." If the same cells are exposed to pulses of higher concentrations of the 5-DAPP/LIVE dyes, the staining appears in the mitochondria (tubular structures that are labeled with rhodamine 123) and then, finally, in the nucleus, where it stains the nucleoli very brightly. Nucleoli are the most prominently stained area of higher eukaryotic cells, while the nuclei and cytosol usually stain in a hazy or punctate pattern in these cells. […] In plant tissues distinct nuclei tend to label uniformly, but there is frequently significant binding of the dye to cell walls. The plant cells are usually dark except for cell walls and nuclei. The characteristic binding morphology obtained using the 5-DAPP/LIVE dyes thus makes them useful in certain circumstances for identifying the type of cell in a mixed population of cells.
# [17] = tested on: gram-positive bacteria; test: Staining of live gram-positive bacteria; type: cell-based; conditions: general summary
SMILES,membrane permeability [2],cell wall / surface staining [3],staining distribution and intensity [4],distribution of dye into nucleus of lymphocytes [7],entry into / staining of live cells [2],staining of nuclei of protozoans [8],rate of dye loading [10],other results
"C[n+]1c(C=C2C=CN(CCC[N+](C)(C)CCC[N+](C)(C)CCCN3C=CC(=Cc4oc5ccccc5[n+]4C)c4ccccc43)c3ccccc32)oc2ccccc21 [YOYO-1, reference compound]",virtual impermeability,,,,,,,DNA binding affinity of YOYO-1 over 5-DAPP/LIVE [1]: hundred
CCCC[n+]1c(-c2ccccc2)c2cc(N)ccc2c2ccc(N)cc21 [butidium],limited permeability in most cells,more hazy surface staining,more punctate cytoplasmic inclusions stained,virtually instantaneous,enters live cells slowly and is usually not very bright,octidium which is better than butidium and ethidium,increases with carbon chain length,"binding affinity versus longer chain versions [5]: higher binding affinity than the tested longer chain versions; fraction of spores brightly stained [6]: about 10%; staining of spores (in words) [6]: stains all spores; staining distribution, chloroquine-treated cells [9]: stained throughout, but with a greater relative intensity of staining in the nucleus; staining distribution, control cells [9]: relatively equal staining in the nucleus and cytoplasm; color of nucleus and cytoplasm [9]: orange"
CCN1c2cc(N)ccc2-c2ccc(N)cc2C1c1ccccc1 (stereo not shown) [dihydrophenanthridine derivative],,,,,,,,nucleic acid binding [11]: does not bind to nucleic acids
"CC[n+]1c(-c2ccccc2)c2cc(N)ccc2c2ccc(N)cc21 [ethidium bromide, reference compound]",,,,,,,,"increase in fluorescence over time ([7]; 2 μM dye, 520 nm excitation, 600 nm emission): essentially no increase in fluorescence signal over time"
"CC[n+]1c(-c2ccccc2)c2cc(N)ccc2c2ccc(N)cc21 [ethidium, reference compound]",,more hazy surface staining,stains all yeast slightly with a pale red nucleus and hazy red cytoplasm,not ethidium,does not enter most live cells easily,octidium which is better than butidium and ethidium,increases with carbon chain length,staining of live gram-positive bacteria [12]: does not effectively stain; trypanocidal effectiveness / therapeutic potential [13]: superior to that of other 5-DAPP derivatives with longer alkyl chains; fraction of spores entered [6]: less than 10%; suitability for staining of nucleic acids in living cells [14]: usually not suitable for staining of nucleic acids in living cells in which the cell membrane is intact; staining of live gram-negative bacteria [15]: does not effectively stain
C[n+]1c(-c2ccccc2)c2cc(N)ccc2c2ccc(N)cc21 [methidium],,,,,,,,trypanocidal effectiveness / therapeutic potential [13]: less effective than ethidium
CCCCCCCC[n+]1c(-c2ccccc2)c2cc(N)ccc2c2ccc(N)cc21 [octidium],marked enhancement of membrane permeability in all systems,more hazy surface staining occurs with ethidium and butidium than with hexidium or octidium,somewhat less bright than hexidium staining; also recorded: markedly less cytoplasmic staining than any of the other forms,virtually instantaneous,enters cell membranes quickly; also recorded: becomes bright with continued incubation,better than butidium and ethidium,increases with carbon chain length,"nuclear staining / staining [3]: stains identically to hexidium; fraction of yeast with stained nuclei [4]: less than 100%; fraction of spores brightly stained [6]: about 10%; staining distribution, chloroquine-treated cells [9]: stained throughout, but with a greater relative intensity of staining in the nucleus; staining distribution, control cells [9]: relatively equal staining in the nucleus and cytoplasm; color of nucleus and cytoplasm [9]: orange"
Nc1ccc2c(c1)c(-c1ccccc1)[n+](CCc1ccccc1)c1cc(N)ccc21 [phenethidium],marked enhancement of membrane permeability in all systems,,,,"facilitates entry of the 5-DAPP dye into living cells, but at a rate that is typically slower than derivatives in which the substituent is a C4 to C8 alkyl group",,,time to enter tissue culture cells [16]: ≥ 1 h; entry into gram positive bacteria [17]: enters gram positive bacteria
